Consider seven compounds from patent US12643879B2, “Functionalized heterocyclic compounds as modulators of stimulator of interferon genes (STING)” (RYVU THERAPEUTICS S.A., priority 2019, dated 2026).

The EC50 is the concentration at which the effect is half-maximal.

For experiment [1], the target named is human STING (Homo sapiens, UniProt Q86WV6). The experiment in a line: Fluorescence Thermal Shift assay (binding to STING). The conditions noted are these: STING 0.1 mg/mL, SyproOrange, 25 to 99° C. In short, it runs like this:
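Human STING (0.1 mg/mL final) preincubated 20 min with compounds in 50 mM Hepes, 150 mM NaCl, pH 7.5, then SyproOrange added. Thermal unfolding 25–99 °C at 0.033 °C/s continuous ramp monitored by fluorescence.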

Experiment [2] concerns interferon regulatory factor (IRF) pathway in THP-1 dual cells. In words: THP-1 Dual reporter assay, IRF pathway (luciferase). Format: cell-based. The note with it: Homo sapiens, THP1-Dual; 18 h stimulation, luminescence; read-out: THP1 Dual EC50 (μM) IRF. A digest of the protocol:
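Dual-reporter THP-1 cells treated 18 h with STING agonist; secreted luciferase (IRF) and SEAP (NF-κB) quantified from medium by luminescence and colorimetric absorbance, respectively.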
In general terms: Reporter assays use an easily measured gene product as a stand-in for the process of interest.

The test system of experiment [3] is NF-κB pathway in THP-1 dual cells. The experiment in a line: THP-1 Dual reporter assay, NF-κB pathway (SEAP). Format: cell-based. The conditions noted are these: Homo sapiens, THP1-Dual; 18 h stimulation, absorbance at 630 or 655 nm; read-out: THP1 Dual EC50 (μM) NFkB. In short, it runs like this:
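Luminescence (IRF arm, luciferase under ISG54 minimal promoter with five ISREs) and absorbance at 630 or 655 nm (NF-κB arm, SEAP under IFN-β minimal promoter with NF-κB elements) were measured in supernatants of THP-1 dual cells stimulated 18 h with compound.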

Chain of human STING (Q86WV6 whole entry H232R): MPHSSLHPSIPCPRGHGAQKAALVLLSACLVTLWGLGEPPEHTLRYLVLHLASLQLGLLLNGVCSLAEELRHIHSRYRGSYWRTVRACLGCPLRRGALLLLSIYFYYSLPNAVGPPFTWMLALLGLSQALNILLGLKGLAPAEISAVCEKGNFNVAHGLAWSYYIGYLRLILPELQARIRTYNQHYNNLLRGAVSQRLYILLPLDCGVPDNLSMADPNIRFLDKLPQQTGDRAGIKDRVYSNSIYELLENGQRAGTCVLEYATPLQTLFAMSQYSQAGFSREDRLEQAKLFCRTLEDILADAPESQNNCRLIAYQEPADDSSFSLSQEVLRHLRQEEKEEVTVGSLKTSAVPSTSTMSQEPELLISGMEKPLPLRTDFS

Turning to `Cc1ccc(N2CCC[C@H](N(Cc3ccnc(C)c3)Cc3cn(C4CC4)c4cc(OCCN)c(F)cc4c3=O)C2)cn1` [Example 10, 7-(2-Aminoethoxy)-1-cyclopropyl-6-fluoro-3-({[(3S)-1-(6-methylpyridin-3-yl)piperidin-3-yl][(2-methylpyridin-4-yl)methyl]amino}methyl)-1,4-dihydroquinolin-4-one], the “hSTING FTS binding assay (ΔT C. °)” value in experiment [1] was “+++ (+++=ΔTm ≥20° C.)”. The EC50 in experiment [2] and in experiment [3] was below 1 µM throughout.

Regarding `Cc1ccc(N2CCC[C@H](N(Cc3ccnc(C)c3)Cc3cn(C4CC4)c4cc(N5CC[C@@H](O)C5)c(F)cc4c3=O)C2)cn1.Cl` [Example 14, 1-Cyclopropyl-6-fluoro-7-[(3R)-3-hydroxypyrrolidin-1-yl]-3-({[(3S)-1-(6-methylpyridin-3-yl)piperidin-3-yl][(2-methylpyridin-4-yl)methyl]amino}methyl)-1,4-dihydroquinolin-4-one hydrochloride], the “hSTING FTS binding assay (ΔT C. °)” value in experiment [1] was “+++ (+++=ΔTm ≥20° C.)”. The EC50 in experiment [2] and in experiment [3] was below 1 µM each time.

Regarding `Cc1ccc(N2CCC[C@H](N(Cc3ccnc(C)c3)Cc3cn(C4CC4)c4cc(N5CC[C@@H](CN)C5)c(F)cc4c3=O)C2)cn1.Cl` [Example 20, 7-[(3S)-3-(aminomethyl)pyrrolidin-1-yl]-1-cyclopropyl-6-fluoro-3-({[(3S)-1-(6-methylpyridin-3-yl)piperidin-3-yl][(2-methylpyridin-4-yl)methyl]amino}methyl)-1,4-dihydroquinolin-4-one hydrochloride], in experiment [1], the “hSTING FTS binding assay (ΔT C. °)” value is “+++ (+++=ΔTm ≥20° C.)”. In addition, the EC50 in experiment [2] and in experiment [3] was below 1 µM each time.

With `Cc1ccc(N2CCC[C@H](N(Cc3ccnc(N)c3)Cc3cn(C4CC4)c4cc(F)c(F)cc4c3=O)C2)cn1.Cl` [Example 5, 3-({[(2-Aminopyridin-4-yl)methyl][(3S)-1-(6-methylpyridin-3-yl)piperidin-3-yl]amino}methyl)-1-cyclopropyl-6,7-difluoro-1,4-dihydroquinolin-4-one hydrochloride], the “hSTING FTS binding assay (ΔT C. °)” value in experiment [1] is “+++ (+++=ΔTm ≥20° C.)”. The EC50 in experiment [2] and in experiment [3] was below 1 µM throughout.

For `Cc1ccc(N2CCC[C@H](N(Cc3ccnc(C)c3)Cc3cn(C4CC4)c4cc(N)c(F)cc4c3=O)C2)cn1` [Example 7, 7-Amino-1-cyclopropyl-6-fluoro-3-({[(3S)-1-(6-methylpyridin-3-yl)piperidin-3-yl][(2-methylpyridin-4-yl)methyl]amino}methyl)-1,4-dihydroquinolin-4-one], in experiment [1], the “hSTING FTS binding assay (ΔT C. °)” value was “+++ (+++=ΔTm ≥20° C.)”. Further, the EC50 in experiment [2] and in experiment [3] was below 1 µM each time.

Regarding `COCCn1cc(CN(Cc2ccnc(C)c2)[C@H]2CCCN(c3ccc(N)nc3)C2)c(=O)c2ccccc21.Cl` [Example 21, 3-({[(3S)-1-(6-aminopyridin-3-yl)piperidin-3-yl][(2-methylpyridin-4-yl)methyl]amino}methyl)-1-(2-methoxyethyl)-1,4-dihydroquinolin-4-one hydrochloride], the “hSTING FTS binding assay (ΔT C. °)” value in experiment [1] was “+++ (+++=ΔTm ≥20° C.)”. Also, the EC50 in experiment [2] and in experiment [3] was below 1 µM each time.

With `Cc1cnc(N2C[C@@H](F)C[C@H](N(Cc3ccnc(C)c3)Cc3cn(C4CC4)c4cc(N5CCC[C@H](O)C5)c(F)cc4c3=O)C2)cn1` [Example 82, 1-cyclopropyl-6-fluoro-3-({[(3S,5S)-5-fluoro-1-(5-methylpyrazin-2-yl)piperidin-3-yl][(2-methylpyridin-4-yl)methyl]amino}methyl)-7-[(3S)-3-hydroxypiperidin-1-yl]-1,4-dihydroquinolin-4-one], the “hSTING FTS binding assay (ΔT C. °)” value in experiment [1] is on record as “++ (++=10<ΔTm <20° C.)”. Further, the EC50 in experiment [2] and in experiment [3] was below 1 µM in each case.
